# Values of other authors in patent US7842280B2, “Flexibly labeling peptides” (Case Western Reserve University, priority 2006, dated 2010).
# Conditions: Gd^3+-DOTA used in clinical MRI studies; comparison value; cited from earlier work
smiles,measurement,value
O=C([O-])CN1CCN(CC(=O)[O-])CCN(CC(=O)[O-])CCN(CC(=O)[O-])CC1.[Gd+3] [Gd^3+-DOTA],relaxivity,3.83 m mM^−1 sec^−1
